Assays:
Type in all cases: in vivo
wheat [1] = test: Greenhouse trial: bioefficacy enhancing effect of surfactants on glyphosate, wheat (Example 23); conditions: 300 g ae/HA IPA-glyphosate sprayed on wheat; 360 g/L IPA formulation with 10% active surfactant; 4 weeks after treatment; from fresh weight
Protocol: (§1) A greenhouse trial was conducted by spraying solutions of 300 g ae/HA of IPA-glyphosate on wheat. The glyphosate formulation was based on 360 g/L IPA containing 10% active surfactant. Wheat was used as the “weed” because it germinates smoothly and it is a good species for herbicide study. The untreated check (UTC) was sprayed with only water. Pot 150 was sprayed with glyphosate only solution. Pot 149 was sprayed with glyphosate solution containing tallowamine-15EO (TAE15). TAE15 is the most common surfactant used to enhance glyphosate efficacy.
Plants were sprayed with glyphosate solutions containing surfactant according to the present invention. Table below lists the various surfactants and their corresponding pots. Percent growth control data for 4 weeks after treatment is also shown in this table as well. Percent growth control data was obtained from the fresh weight of these plants. The data clearly indicates glyphosate solutions containing surfactant according to the present invention provides better growth control than glyphosate only, thus acting as an adjuvant. In many cases the adjuvancy is equal to that of TAE15.

wheat [2] = test: Greenhouse trial: hydroxylated soybean oil derivatives with glyphosate, wheat, visual inspection (Example 24); conditions: 300 g ae/HA IPA-glyphosate sprayed on wheat, 10% active surfactant, 4 weeks after treatment
Protocol: as §1
A separate set of test was conducted for these surfactants. The condition and treatment of example 24 was identical to example 23. […] In this case % growth control is a qualitative data obtained by visual inspection of the plants. The data clearly indicates glyphosate solutions containing surfactant according to the present invention provides enhanced growth control than glyphosate only, thus acting as an adjuvant.

morning glory = test: Greenhouse trial: castor oil ethoxylate derivatives with glyphosate, morning glory (Example 25); conditions: 300 g ae/HA glyphosate; 4 weeks after treatment; ranking from picture
Protocol: as §1
The condition and treatment of example 25 was identical to example 23 except that example 25 used morning glory instead of wheat.

## CC(C)N.O=C(O)CNCP(=O)(O)O [IPA Glyphosate alone, IPA-glyphosate]
Wheat [1]
  % Growth Control: 66%
Wheat [2]
  % Growth Control (qualitative): 55%
Morning glory
  morningglory control compared with tallowamine-15EO: didn't show much control

From patent US10000437B2, “Nitrogen containing surfactants with alkoxylation on the hydroxyl group of fatty chains” (Akzo Nobel Chemicals International B.V., priority 2013, dated 2018)
